≈ marks a conversion by molar mass, not a printed value.
Tests used:
Type in all cases: physicochemical
[1] = Stability Test (residual rate of the crystal after preservation, by HPLC); details: crystals in a brown glass bottle, preserved at 40° C. for 2 weeks
Description: Residual rate was measured by HPLC (YMC-Pack AQ-302 ODS 4.6 mm i.d.×150 mm, temperature: about 25° C., mobile phase: (A) water (B) acetonitrile:water:triethylamine=160:40:1, gradient program, detection wavelength: 285 nm).

[2] = Solubility Test, aqueous solution with pH 6.9; details: aqueous buffer, thermodynamic from solid, 8.87 mg almost dissolved when 35 mL was added
Description: To the crystals (8.87 mg) obtained in Example 6 was gradually added dropwise an aqueous solution with pH 6.9.

[3] = Solubility Test, aqueous solution with pH 9.2; details: aqueous buffer, thermodynamic from solid, 10.75 mg almost dissolved when 13.5 mL was added
Description: To the crystals (10.75 mg) obtained in Example 6 was gradually added dropwise an aqueous solution with pH 9.2. The crystals were almost dissolved at the time point when 13.5 mL was added (solubility: 0.80 mg/mL).

residual rate [1]: 100.7%
solubility [2]: 250 µg/mL (≈ 677 µM)
solubility [3]: 800 µg/mL (≈ 2170 µM)
SMILES: Cc1c(OCC(F)(F)F)ccnc1C[S@@+]([O-])c1nc2ccccc2[nH]1 [Example 6, (R)-2-[[[3-methyl-4-(2,2,2-trifluoroethoxy)-2-pyridyl]methyl]sulfinyl]benzimidazole]

From US8222422B2, “Crystal of benzimidazole compound” (Takeda Pharmaceutical Company Limited, priority 2008, dated 2012)
